Measured values reported in patent US6225478A, “Iridoid derivatives and neovascularization inhibitors containing the same as active ingredient” (Tsumura & Co., priority 1999, dated 2001).
In brackets after ≈: the same amount, converted by molar mass.

Legend:
Assay type in all cases: cell-based
[1] = tested on: human umbilical-vein endothelial cells (HUVEC); experiment: Cell Proliferation Assay (CPA) Test, HUVEC, MTT; details: Homo sapiens, M199 (2+) medium, read-out: CPA (IC50 μg/ml)
Experimental: (§1) Furthermore, the sample liquids of compounds used in the CPA and CMA tests were prepared in the manner described below. Firstly, after weighing out each compound, a calculated amount of DMSO was added. After dissolving the compound in the DMSO, phosphate buffered physiological saline (PBS (-)) was added to bring the sample concentration to 1 mg/ml in PBS (-). The amount of DMSO used to dissolve the compounds was adjusted in advance to that the concentration of DMSO at that time was 5%. The resulting liquids were diluted 10-fold with 5% DMSO-PBS (-) solution to prepare sample solutions having a concentration of 0.1 mg/ml. In the TFA test, 320 μl of the prepared 1 mg/ml sample solutions were removed followed by addition of 680 μl of PBS (-) to prepare samples having a concentration of […]. Moreover, 100 μl of this solution was removed followed by addition of 900 μl of PBS (-) to dilute 10-fold and prepare samples having a concentration of 1 μg/ml. P [Cell Proliferation Assay (CPA) Test]
100 μl of the 7th subculture obtained from first generation human umbilical-vein endothelial cells (HUVEC) were disseminated in the wells (N=3) of a 96-well plate (Iwaki, Cat. #4860-010) at a cell concentration of 5×10^4 cells/ml. M-199 medium containing +20% FCS, 10 ng/ml of b-FGF and 10 ng/ml of EGF (abbreviated as "M199 (2+)") was used for the medium.
After culturing for 24 hours at 37° C. in the presence of 5% CO2 under the above conditions, 20 μl/well of MTT solution (solution containing 5 mg/ml of PBS (-)) were added to the control well followed by accurately culturing for 4 hours at 37° C. in the presence of 5% CO2. Following completion of culturing, 100 μl/well of a stop solution (0.001 N aqueous HCl solution containing 10% SDS) were added. On the other hand, 10 μl/well of sample solutions at concentrations of 1 mg/ml and 0.1 mg/ml were added to the other wells.
After culturing for 24 hours at 37° C. in the presence of 5% CO2, the medium was replaced and 100 μl/well of M199 (2+) were added. The samples were also replaced in each well at this time.
Moreover, after additionally culturing for 48 hours at 37° C. in the presence of 5% CO2, 20 μl/well of MTT solution were added to the wells containing sample and the control well followed by accurately culturing for 4 hours at 37° C. and adding 100 μl/well of stop solution.

[2] = tested on: human umbilical-vein endothelial cells (HUVEC); experiment: Tube Formation Assay (TFA) Test, HUVEC in collagen gel; details: Homo sapiens, HUVEC, 20 h, 20 hours, 40% or less judged remarkable, read-out: TFA (inhibition rate, %); for inhibition at 1 µg/mL: 1 μg/ml; for inhibition at 10 µg/mL: 10 μg/ml
In short: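 HUVEC (7th subculture, 1×10^5 cells/ml) attached to collagen gel for 2 h at 37 °C, given sample and overlaid with collagen, then cultured 20 h at 37 °C, 5% CO2 in M-199 with 20% FCS, 30 ng/ml b-FGF and 0.1 μM PMA. Tube length measured by image analysis; % inhibition relative to positive and negative controls.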

[3] = tested on: human umbilical-vein endothelial cells (HUVEC); experiment: Cell Migration Assay (CMA) Test, HUVEC (% relative to control); details: Homo sapiens, HUVEC, 24 hours, 60% or less = remarkable inhibition, read-out: CMA (% relative to control); for activity at 1 µg/mL: 1 μg/ml; for activity at 10 µg/mL: 10 μg/ml
Experimental: as §1
After disseminating the 7th subculture of HUVEC obtained from the first generation in the same manner as above at 4 ml/well (3.0×10^5 cells/well) in a collagen-coated 6-well plate (NUNC), the cells were cultured for 48 hours at 37° C. in the presence of 5% CO2. The cells reached nearly a completely confluent state as a result of this culturing.
A double-edged, disposable razor blade was divided into four sections, of which one of those sections was pinched between a pair of forceps. Using this piece of razor blade, the cell surface in the above confluent state was scraped off. Two areas of the cell surface were scraped off in each well.
After washing the surface of the wells from which the cells had been scraped off with medium, 4.0 ml of fresh M199 (2+) medium were added followed by addition of 40 μl or 4 μl of sample solution (1 mg/ml). The cells were cultured for 24 hours at 37° C. in the presence of 5% CO2. After discarding the culture liquid, the cells were fixed for 30 minutes with methanol. Next, after staining the cells for 4 hours with Giemsa stain, the plates were washed with tap water and air dried.
Measurement of cell migration was performed by microscopically counting the number of cells that had newly migrated within the range of a 1 mm×1 mm block. […] The total number of cells counted in blocks 1 through 5 were then totaled to determine the overall total number of cells. Four fields were counted for each well.
Evaluation was performed determining the cell migration (%) according to the following formula.
Cell migration rate=number of migrating cells to which sample was added×100/number of migrating of control (+)
Control (+) indicates the number of migrating cells in the control well containing M199 (2+).

| SMILES | IC50 [1] [µg/mL] | inhibition at 1 µg/mL [2] [%] | inhibition at 10 µg/mL [2] [%] | activity at 1 µg/mL [3] [%] | activity at 10 µg/mL [3] [%] |
| --- | --- | --- | --- | --- | --- |
| COC(=O)C1=CO[C@@H](OC(=O)Nc2ccccc2)[C@@H]2[C@@H]1C[C@@H]1O[C@]21C [compound 35, (1S,4aS,6S,7R,7aR)-6,7-epoxy-1,4a,5,6,7,7a-hexahydro-7-methyl-1-(phenylcarbamoyloxy) cyclopenta [c] pyrane-4-carboxylic acid methylester] | > 100 | -3.3 | 20 | 84.4 | 67.2 |
| CNC(=O)O[C@@H]1OC=C(C(=O)OC)[C@H]2C[C@@H]3O[C@]3(C)[C@H]12 [compound 3, (1S,4aS,6S,7R,7aR)-6,7-epoxy-1,4a,5,6,7,7a-hexahydro-1-methylcarbamoyloxy-7-methylcyclopenta [c] pyrane-4-carboxylic acid methylester] | > 100 | 33 | 33.5 | 68.5 | 57.3 |
| C=CCOC(=O)C1=CO[C@@H](OC(=O)NC)[C@@H]2[C@@H]1C[C@@H]1O[C@]21C [compound 9, (1S,4aS,6S,7R,7aR)-6,7-epoxy-1,4a,5,6,7,7a-hexahydro-7-methyl-1-(methylcarbamoyloxy) cyclopenta [c]-pyrane-4-carboxylic acid allylester] | > 100 | 11 | 16.5 | 111 | 116 |
| CNC(=O)OC1OC=C(C(=O)N2CCCCC2)C2CC3OC3(C)C12 [compound 26, (1S,4aS,6S,7R,7aR)-6,7-epoxy-1,4a,5,6,7,7a-hexahydro-7-methyl-1-(methylcarbamoyloxy) cyclopenta [c]-pyrane-4-carboxylic acid piperidylamide] | > 100 | 41.2 | 30.8 | 84 | 104 |
| COC(=O)C1=CO[C@@H](OC(=O)NC(C)C)[C@@H]2[C@@H]1C[C@@H]1O[C@]21C [compound 34, (1S,4aS,6S,7R,7aR)-6,7-epoxy-1,4a,5,6,7,7a-hexahydro-1-(isopropylcarbamoyloxy)-7-methylcyclopenta [c] pyrane-4-carboxylic acid methylester] | > 100 | 16.8 | -14.1 | 98.2 | 95.2 |
| COC(=O)C1=COC(OC(=O)N(C)C)C2C1CC1OC12C (stereo not shown) [compound 31] | > 100 | 15.2 | 26.5 | 97.2 | 107 |
| CNC(=O)O[C@@H]1OC=C(C(=O)OC2CCCCC2)[C@H]2C[C@@H]3O[C@]3(C)[C@H]12 [compound 14, (1S,4aS,6S,7R,7aR)-6,7-epoxy-1,4a,5,6,7,7a-hexahydro-7-methyl-1-(methylcarbamoyloxy) cyclopenta [c]-pyrane-4-carboxylic acid cyclohexylester] | > 100 | 38.2 | 48.7 | 99.4 | 102 |
| CNC(=O)OCC12O[C@H]1C[C@@H]1C(C(=O)OC)=CO[C@@H](OC(=O)NC)C12 (stereo in doubt) [compound 48, (1S,4aS,6S,7R,7aR)-6,7-epoxy-1-(methylcarbamoyloxy)-7-(methylcarbamoyloxymethyl)-1,4a,5,6,7,7a-hexahydrocyclopenta [c] pyrane-4-carboxylic acid methylester] | > 100 | 51.5 | 54.1 | 93.3 | 107 |
| CNC(=O)O[C@@H]1OC=C(C(=O)OC)[C@H]2C[C@@H]3OC3(COC)C12 (stereo in doubt) [compound 49, (1S,4aS,6S,7R,7aR)-6,7-epoxy-7-(methoxymethyl)-1-(methylcarbamoyloxy)-1,4a,5,6,7,7a-hexahydrocyclopenta [c] pyrane-4-carboxylic acid methylester] | > 100 | 21.2 | 12.8 | 102 | 104 |
| COC(=O)C1=COC(OC(=O)Nc2cccc3ccccc23)C2C1CC1OC12C [compound 37, (1S, 4aS,6S,7R,7aR)-6,7-epoxy-1,4a,5,6,7,7a-hexahydro-7-methyl-1-[(1-naphtyl)carbamoyloxy] cyclopenta [c] pyrane-4-carboxylic acid methylester] | > 100 | 14.1 | 22.6 | 102 | 88.6 |
| COC(=O)C1=CO[C@@H](OC(=O)NC(=O)CCl)[C@@H]2[C@@H]1C[C@@H]1O[C@]21C [compound 39, (1S,4aS,6S,7R,7aR)-1-(chloroacetylcarbamoyloxy)-6,7-epoxy-1,4a,5,6,7,7a-hexahydro-7-methylcyclopenta [c] pyrane-4-carboxylic acid methylester] | 55 (≈ 159 µM) | 37.6 | 39.7 | 110 | 94.6 |
| CNC(=O)OC1OC=C(C(=O)N2CC(C)OC(C)C2)C2CC3OC3(C)C12 [compound 24, (1S,4aS,6S,7R,7aR)-6,7-epoxy-1,4a,5,6,7,7a-hexahydro-7-methyl-1-(methylcarbamoyloxy) cyclopenta [c]-pyrane-4-carboxylic acid 2,6-dimethylmorpholylamide] | > 100 | 41.3 | 24.2 | 96.9 | 112 |
| COC(=O)C1=CO[C@@H](OC(=O)N2CCOCC2)[C@@H]2[C@@H]1C[C@@H]1O[C@]21C [compound 38, (1S,4aS,6S,7R,7aR)-6,7-epoxy-1,4a,5,6,7,7a-hexahydro-7-methyl-1-(morpholinocarbonyloxy) cyclopenta [c] pyrane-4-carboxylic acid methylester] | > 100 | 15.3 | -10 | 92.3 | 61.8 |
| CNC(=O)OC1OC=C(C(=O)N2CCN(C)CC2)C2CC3OC3(C)C12 [compound 20, (1S,4aS,6S,7R,7aR)-6,7-epoxy-1,4a,5,6,7,7a-hexahydro-7-methyl-1-(methylcarbamoyloxy) cyclopenta [c]-pyrane-4-carboxylic acid 4-methylpiperazylamide] | > 100 | 34.3 | 19.6 | 97.4 | 89.5 |
